Assay results as given in US20220334101A1, “MODULATING EXTRACELLULAR MATRIX MOVEMENT” (Helmholtz Zentrum Muenchen - Deutsches Forschungszentrum …, priority 2019, published 2022).
“Also recorded” adds a separate entry of the source. Counter-ions that a name gives are not always drawn. Like-named read-outs stand apart in the source and are kept apart here.

Key:
skin-fascia explants = experiment: Scar-in-a-dish (SCAD) ex vivo skin-fascia explant assay, screening of Prestwick chemical library; type: cell-based, mouse; conditions: molecules of table 1 named as inhibitors of ECM movement
From the text: Post born Day 0 (P0) neonates of C57BL/6J wild type mouse were first sacrificed by decapitation. Then dorsal back skin was isolated to make 2 mm full thickness biopsies (0 2 mm, Stiefel) that included the epidermis, dermis and deep subcutaneous fascia layers. The whole skin tissue explant system is termed as scar-in-a-dish (SCAD) assay (Patent Application no. PLA17A13). The SCAD tissue was maintained in DMEM/F12 cell culture medium (Life Technologies) supplemented with 10% FBS (Life Technologies), 1% non-essential amino acid (Thermo Fisher), 1% Glutamax (Thermo Fisher), 1% penicillin and streptomycin (Thermo Fisher) in a 37° C. incubator supplied with […] and 5% CO2. Medium was changed every other day until day 5 when SCADs were collected and fixed for histology analysis. To be noticed, the excised skin was submerged […] in culture media, which confined the scar-prone fibroblasts to the explant and discouraged their adherence to the tissue culture plate.
The PCL provides an additional advantage as all chemicals are of stable physicochemical properties, show a high range of chemical diversity, and are with known bioavailability and safety data in humans. All these information helps to reduce the probability of screening low-quality hits and save the costs of preliminary screening process.
In order to accommodate to medium scale screening approach, the Inventors adapted the SCAD explant system into 96-well plate (Falcon) formats, with each well contained one biopsy. […] Plate and liquid handling were performed using a high-throughput screening platform system composed of a Sciclone G3 Liquid Handler from PerkinElmer (Waltham, Mass., USA). On Day 0 tissues were treated either with the respective compound (1 mM stock solution) dissolved in 100% dimethyl sulfoxide (DMSO, Carl Roth) or DMSO alone. 0.5 μl of compounds/DMSO were transferred with a 96-array head to 200 μl DMEM/F12 medium per well to keep the final DMSO concentrations at […]. Tissues were then incubated (37° C.; 5% CO2) for 72 h prior to a second round of compound treatment, which was performed by exchanging cell culture medium per well and transferring […] of compounds/DMSO into the fresh medium. After an incubation time of another 48 h (37° C.; 5% CO2) the tissues were harvested and fixed for histological processing and imaging.
Briefly, the Inventors excised 2-mm full thickness skin biopsies that included epidermis, dermis, and deep subcutaneous fascia layers from mouse backs (see Methods). Skin-fascia explants were submerged fascia-side up in culture media, to confine scar-prone fibroblasts to the explant and discourage their adherence to the tissue culture plate.
The Prestwick library has selected a diverse array of chemicals with strong physicochemical properties, with known bioavailability and clinical safety data. The library is an ideal place to start screening as it covers all major therapeutic chemical classes such as central nervous system, cardiovascular system, metabolism, and infectious diseases.

fascia fibroblasts [1] = experiment: 3D staining of fascia tissue for αSMA, Ki67 and caspase 3; type: cell-based, mouse; conditions: fascia tissue in Matrigel
Description: (§1) In order to characterize the properties of fascia samples cultured in Matrigel, the Inventors fixed the whole gel (with fascia tissue embedded inside) and conducted 3D staining. Samples were immersed overnight in PBSGT (lx PBS implemented with 0.2% gelatin (Sigma), 0.5% Triton X-100 (Sigma) and 0.01% thimerosal (Sigma)) at room temperature and incubated with primary antibodies diluted in PBSGT for three days at room temperature. The tissues were then washed three times with PBSGT for at least 30 min each time and incubated with secondary antibodies diluted in PBSGT for one day. Finally, tissues were rinsed three times with PBSGT and stored in PBS at 4° C. until imaging. 3D whole mount imaging was conducted with a Leica SP8 multi-photon microscope.
(§2) Primary and secondary antibodies applied in 3D staining: αSMA (ab21027, Abcam), Ki 67 (ab16667, Abcam), Cleaved Caspase-3 (9661S, Cell signalling), Gli1 (ab49314, Abcam), Donkey anti rabbit AF647 (A-31573, Life Technologies), Donkey anti goat AF647 (A-21447, Life Technologies).
To better understand the molecular basis of reticulations that leads to scarring, the Inventors took a closer look at the molecular targets of the ‘hit’ chemicals. […] Thiostrepton reduces the binding activity of the transcriptional factor FoxM1; a positive regulator of Gli1 signaling (REF). Whereas Itraconazole inhibits Gli nuclear activity through stopping SMO moving to the membrane of primary cilia and thus inhibiting the pathway (James et al., 2010). […] The 3rd anti-scar drug Fluvastatin inhibits 3-Hydroxy-3-methylglutaryl-coenzyme A (HMG-CoA) reductase, a rate-limiting enzyme in cholesterol biogenesis that is required for hedgehog pathway activation (Huang P et al., 2016; Giovanni Luchetti et al., 2016). […] Thus, the Inventors conclude that anti-fibrosis chemicals converge on SHH pathway signaling to modulate fibroblast sprouting and reticulations, needed to mobilize fascia jelly into sites of injury.
The hedgehog pathway was also reported to induce proliferation and to depress apoptosis.

[2] = system: scars of splinted back-skin wounds; experiment: In vivo splinted wound model (scar formation); set-up: species or system mouse; conditions: 75 μl per wound of 250 μM intra-dermally, day 21, trichrome staining
fascia fibroblasts [3] = experiment: Fascia invasion assay (ex vivo fascia 3D Matrigel culture); type: cell-based, mouse
Description: In order to observe the dynamic changes of fascia fibroblasts, the inventors isolated dorsal skin from P4 to P6 neonates of En1^Cre; R26^mTmG mouse lines. Cre positive neonates from this double transgenic mouse line were detected by green fluorescent signal in dorsal skin with a Leica M205 FA stereo microscope. Matrigel was prepared by diluting the stock aliquots with DMEM/F12 medium to a concentration of 6 mg/ml. Then 150 μl prepared gel was added in the center of a 35 mm cell culture dish (Ibidi). 4 mm biopsies were made from the dorsal skin and fascia tissues were then isolated from the dorsal skin tissues. Isolated fascia tissues were then embedded into the gel and were allowed to be solidified for one hour at 37° C. Then the tissue-gel system was maintained in DMEM/F12 medium (Life Technologies) supplemented with 10% FBS (Life Technologies), 1% non-essential amino acid (Thermo Fisher), 1% Glutamax (Thermo Fisher), 1% penicillin and streptomycin (Thermo Fisher) in a 37° C. incubator supplied with 95% O2 and 5% CO2. Medium was changed every other day until day 4 when tissues were collected and fixed. For fixation with Matrigel system, tissues were fixed in 2% paraformaldehyde (VWR) with 0.1% glutaraldehyde (Sigma) for 1 hour and then washed three times with phosphate buffered saline (PBS, Life Technologies) and stored in PBS at 4° C.
Fascia tissues were recorded everyday by a brightfield microscope to check the invasion and contraction state of the tissues. The invasion index was calculated with the following formula: Invasion index=(SD4−SD0)/SD0
SD4 and SD0 represent tissue size (including the migrated area) on Day 4 and Day 0, respectively. The contraction index was calculated with the following formula: Contraction index=(TD0−TD4)/TD0
TD4 and TD0 represent original tissue size (excluding the migrated area) on Day 4 and Day 0 respectively.
The Inventors isolated fascia from back-skin of En1^Cre; R26^mTmG double-transgenic mice, separately incubated whole fascia explants with 26 small molecules, and measured the invasion index (Si)=(SD4−SD0)/SD0 (see Methods) as a proxy measure of sprouting and reticulation.

[4] = system: fascia matrix mobilization into wounds; experiment: Fascia labelling study: fascia mobilization into excisional back-skin wounds in live mice; type: in vivo, mouse; conditions: 75 μl of 250 μM three times a week, wounds collected Day 7
Description: For the fascia labelling study, 2 mg/ml NHS-fluorescein dye was subcutaneously injected into dorsal skin of wildtype mice at 4 days and 2 days prior to the surgery. After labelling, excisional wounds were made in mouse back-skin and treated with 75 μl saline diluted chemical solutions with a final concentration of 250 μM three times a week from the surgery day onwards. Scar samples were collected on D7.
Having discovered sprouting and reticulations are altered by the compounds, the Inventors went on to check how these effect fascia mobilization in physiologic wounds in live animals. First, the Inventors labelled the subcutaneous fascia layer with a FITC-NHS ester dye in animals, then made full thickness excisional wounds on the backs of fascia-labelled mice, and followed wound healing under the presence of a […] injection regimen using the above 3 separate compounds. Skin wounds were collected at Day 7 after wounding to determine the extent of fascia mobilization and also at 21 days post-injury to determine final wound size and scar severity. In DMSO control groups, the fascia matrix jelly was mobilized into the wound from all sides of the wound, and wounds at 7 days were completely clogged with large patches of labelled matrix jelly.

Gli1 = experiment: 3D staining of fascia tissue for Gli1 (hedgehog pathway); type: cell-based, mouse; conditions: fascia tissue in Matrigel
Description: as §1, §2
To better understand the molecular basis of reticulations that leads to scarring, the Inventors took a closer look at the molecular targets of the ‘hit’ chemicals. […] Thiostrepton reduces the binding activity of the transcriptional factor FoxM1; a positive regulator of Gli1 signaling (REF). […]

fascia matrix = experiment: Fascia in vitro culture, live imaging of matrix movements (SHG); type: cell-based, mouse; conditions: C57BL6/J neonate fascia biopsy, 100 μM Etoposide
Description: Two in vitro systems were used. To visualize the changes in matrix architecture in real time, 2 mm-diameter biopsies were excised from P0 C57BL/6J neonates and processed for live imaging (SCAD assay, Patent Application No. PLA17A13). To determine the effectiveness of the DT treatment, muscle+fascia was manually separated from the rest of the skin in the chimeric grafts experiments and incubated with DT at different concentrations for 1 h at ambient temperature. […]
Histological sections were imaged using a using a ZEISS AxioImager.Z2m (Carl Zeiss). […] Second harmonic generation signal and green auto-fluorescence as a reference were recorded every hour. […]
Histological images were analyzed using ImageJ. For quantification of labeled cells in the fate mapping experiments, the Inventors manually defined the wound, surrounding dermis, and adjacent fascia areas. […] The number of labeled cells in each area was determined by quantifying the particles that were double-positive for DAPI and for the desired label (eg. Dil, GFP, etc) channels. The coverage of the labeled matrix in the wound area was determined by quantifying the area that was double-positive for the labeled matrix and the COLLAGEN I+III+VI staining signal. […] Scar length was quantified from randomly selected sections taken from the middle of the scar using as a reference the two flanking hair follicles. […]

[5] = listed as Fluvastatin, sodium salt

| Compound | phenotype as inhibitor of ECM movement (skin-fascia explants) | cell death (caspase 3) (fascia fibroblasts [1]) | cell proliferation activity (Ki67) (fascia fibroblasts [1]) | αSMA expression / activation into myofibroblasts (fascia fibroblasts [1]) | scar size / scarring of wounds [2] | inter-cell connectivity, sprouting and reticulations within the fascia (fascia fibroblasts [3]; [5]) | inter-cell connectivity, sprouting and reticulations within the fascia (fascia fibroblasts [3]; sodium salt) | fascia (matrix jelly) mobilization into wounds [4, 5] | fascia (matrix jelly) mobilization into wounds ([4]; sodium salt) | Gli1 protein expression (Gli1) | fascia matrix movements (contraction) (fascia matrix) | inter-cell connectivity, sprouting and reticulations within the fascia (fascia fibroblasts [3]) | fascia (matrix jelly) mobilization into wounds [4] |
| --- | --- | --- | --- | --- | --- | --- | --- | --- | --- | --- | --- | --- | --- |
| CC(C)n1c(/C=C/C(O)CC(O)CC(=O)O)c(-c2ccc(F)cc2)c2ccccc21 (centres unmarked) [Fluvastatin sodium salt] | anti-fibrotic phenotype | increased | decreased | cells can be activated into myofibroblast | reduced scaring of wounds | intact cell-cell connection and network formation | completely inhibited sprouting and reticulations | completely inhibited | reduced fascia jelly movements | weakly expressed |  |  |  |
| COc1cc([C@@H]2c3cc4c(cc3[C@@H](O[C@@H]3O[C@@H]5CO[C@@H](C)O[C@H]5[C@H](O)[C@H]3O)[C@H]3COC(=O)[C@H]23)OCO4)cc(OC)c1O [Etoposide] |  |  |  |  |  |  |  |  |  |  | no effect; also recorded: clear contraction of the fascial matrix in culture in absence of cell proliferation |  |  |
| C=C(NC(=O)C(=C)NC(=O)c1csc(C2=N[C@@H]3c4csc(n4)[C@H]4NC(=O)c5csc(n5)[C@H]([C@](C)(O)[C@@H](C)O)NC(=O)[C@H]5CSC(=N5)/C(=C/C)NC(=O)[C@H]([C@@H](C)O)NC(=O)c5csc(n5)[C@]3(CC2)NC(=O)[C@H](C)NC(=O)C(=C)NC(=O)[C@H](C)NC(=O)[C@H]([C@@H](C)CC)N[C@@H]2C=Cc3c([C@H](C)O)cc(nc3[C@H]2O)C(=O)O[C@@H]4C)n1)C(N)=O [Thiostrepton] | anti-fibrotic phenotype | increased | decreased |  | reduced scaring of wounds |  |  |  |  |  |  | completely inhibited sprouting and reticulations | reduced fascia jelly movements; also recorded: inhibited |
